17 molecules from patent publication US20250243171A1, “QUINAZOLINE COMPOUNDS FOR TREATMENT OF DISEASE” (Arthrosi Therapeutics, Inc., priority 2021, published 2025) can be followed below.

Molecules are shown by their SMILES.

Test in all cases: EC50 assay: Ba/F3 stable cell proliferation (CCK-8, 72 h)
What all share (format): cell-based

Test [1] deals with T1, Ba/F3 stable cells (Homo sapiens, UniProt P00533, DUP768-770, cells depend on it).
T1 construct: EC50 Ba/F3-EGFR D770-N771insSVD; other: Ba/F3-EGFR D770-N771insSVD cells, 72 h, CCK-8
The settings on record: Ba/F3-EGFR D770-N771insSVD cells. Put shortly:
(§1)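 Ba/F3 stable cells were seeded at 4,000 cells/90 μL/well in 96-well plates and held 2 h at 37° C. in 5% CO2, then given 10 μL of serially titrated compound (0.1% DMSO final). After 72 h at 37° C., CCK-8 reagent was added for 4 hours and absorbance read at 450 nm to derive EC50.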

The target of test [2] is T2, Ba/F3 stable cells (Homo sapiens, UniProt P00533, DUP771-773, cells depend on it).
T2 construct: EC50 Ba/F3-EGFR H773-V774insNPH; other: Ba/F3-EGFR H773-V774insNPH cells, 72 h, CCK-8
The following applies: Ba/F3-EGFR H773-V774insNPH cells. An outline of the steps:
as §1

Test [3] addresses T3, Ba/F3 stable cells (Homo sapiens, UniProt P00533, INS763FQEA, cells depend on it).
T3 construct: EC50 Ba/F3-EGFR A763-Y764insFQEA; other: Ba/F3-EGFR A763-Y764insFQEA cells, 72 h, CCK-8
The following applies: Ba/F3-EGFR A763-Y764insFQEA cells. An outline of the steps:
as §1

Test [4] addresses T4, Ba/F3 stable cells (Homo sapiens, UniProt P00533, DUP767-769, cells depend on it).
T4 construct: EC50 Ba/F3-EGFR V769-D770insASV; other: Ba/F3-EGFR V769-D770insASV cells, 72 h, CCK-8
The following applies: Ba/F3-EGFR V769-D770insASV cells. Put shortly: as §1

Test [5] addresses T5, Ba/F3 stable cells (Homo sapiens, UniProt P04626, DUP772-775, cells depend on it).
T5 construct: EC50 Ba/F3-HER2 A775-G776insYVMA; other: Ba/F3-HER2 A775-G776insYVMA cells, 72 h, CCK-8
The following applies: Ba/F3-HER2 A775-G776insYVMA cells. An outline of the steps:
as §1

The target of test [6] is T6, Ba/F3 stable cells (Homo sapiens, UniProt P00533, T790M/L858R, cells depend on it).
T6 construct: EC50 Ba/F3-EGFR L858R-T790M; other: Ba/F3-EGFR L858R-T790M cells, 72 h, CCK-8
The settings on record: Ba/F3-EGFR L858R-T790M cells. Put shortly:
as §1

T2 sequence (P00533 with tags, fused parts or gaps DUP771-773): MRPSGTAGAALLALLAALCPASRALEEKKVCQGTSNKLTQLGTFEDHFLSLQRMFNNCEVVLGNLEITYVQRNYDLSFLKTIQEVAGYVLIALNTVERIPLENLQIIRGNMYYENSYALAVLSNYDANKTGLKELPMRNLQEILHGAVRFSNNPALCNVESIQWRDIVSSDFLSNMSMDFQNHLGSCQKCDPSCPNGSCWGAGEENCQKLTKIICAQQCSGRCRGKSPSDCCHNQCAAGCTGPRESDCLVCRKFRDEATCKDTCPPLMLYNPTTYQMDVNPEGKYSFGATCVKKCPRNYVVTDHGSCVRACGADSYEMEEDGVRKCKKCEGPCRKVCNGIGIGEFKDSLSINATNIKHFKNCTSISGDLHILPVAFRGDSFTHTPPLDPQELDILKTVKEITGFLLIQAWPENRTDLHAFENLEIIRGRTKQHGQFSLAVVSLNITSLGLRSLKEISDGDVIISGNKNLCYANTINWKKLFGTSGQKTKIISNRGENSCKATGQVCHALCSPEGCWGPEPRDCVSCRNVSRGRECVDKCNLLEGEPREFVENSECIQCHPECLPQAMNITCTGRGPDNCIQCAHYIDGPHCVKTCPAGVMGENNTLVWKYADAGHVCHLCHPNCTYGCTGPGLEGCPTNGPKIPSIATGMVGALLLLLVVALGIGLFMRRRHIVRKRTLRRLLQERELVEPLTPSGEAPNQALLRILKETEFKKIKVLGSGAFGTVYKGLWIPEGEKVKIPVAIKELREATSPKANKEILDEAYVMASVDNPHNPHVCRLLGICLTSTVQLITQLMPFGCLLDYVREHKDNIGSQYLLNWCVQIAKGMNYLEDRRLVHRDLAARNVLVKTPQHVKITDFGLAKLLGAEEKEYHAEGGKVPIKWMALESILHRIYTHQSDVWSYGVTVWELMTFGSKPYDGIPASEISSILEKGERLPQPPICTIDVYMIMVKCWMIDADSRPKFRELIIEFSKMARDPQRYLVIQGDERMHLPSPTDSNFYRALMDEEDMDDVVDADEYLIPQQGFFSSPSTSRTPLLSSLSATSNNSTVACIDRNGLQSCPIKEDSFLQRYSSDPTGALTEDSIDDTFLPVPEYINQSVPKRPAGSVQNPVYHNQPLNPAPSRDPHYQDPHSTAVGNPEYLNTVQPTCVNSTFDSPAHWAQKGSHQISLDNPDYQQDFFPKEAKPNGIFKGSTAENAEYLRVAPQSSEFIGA
T5 sequence (P04626 with tags, fused parts or gaps DUP772-775): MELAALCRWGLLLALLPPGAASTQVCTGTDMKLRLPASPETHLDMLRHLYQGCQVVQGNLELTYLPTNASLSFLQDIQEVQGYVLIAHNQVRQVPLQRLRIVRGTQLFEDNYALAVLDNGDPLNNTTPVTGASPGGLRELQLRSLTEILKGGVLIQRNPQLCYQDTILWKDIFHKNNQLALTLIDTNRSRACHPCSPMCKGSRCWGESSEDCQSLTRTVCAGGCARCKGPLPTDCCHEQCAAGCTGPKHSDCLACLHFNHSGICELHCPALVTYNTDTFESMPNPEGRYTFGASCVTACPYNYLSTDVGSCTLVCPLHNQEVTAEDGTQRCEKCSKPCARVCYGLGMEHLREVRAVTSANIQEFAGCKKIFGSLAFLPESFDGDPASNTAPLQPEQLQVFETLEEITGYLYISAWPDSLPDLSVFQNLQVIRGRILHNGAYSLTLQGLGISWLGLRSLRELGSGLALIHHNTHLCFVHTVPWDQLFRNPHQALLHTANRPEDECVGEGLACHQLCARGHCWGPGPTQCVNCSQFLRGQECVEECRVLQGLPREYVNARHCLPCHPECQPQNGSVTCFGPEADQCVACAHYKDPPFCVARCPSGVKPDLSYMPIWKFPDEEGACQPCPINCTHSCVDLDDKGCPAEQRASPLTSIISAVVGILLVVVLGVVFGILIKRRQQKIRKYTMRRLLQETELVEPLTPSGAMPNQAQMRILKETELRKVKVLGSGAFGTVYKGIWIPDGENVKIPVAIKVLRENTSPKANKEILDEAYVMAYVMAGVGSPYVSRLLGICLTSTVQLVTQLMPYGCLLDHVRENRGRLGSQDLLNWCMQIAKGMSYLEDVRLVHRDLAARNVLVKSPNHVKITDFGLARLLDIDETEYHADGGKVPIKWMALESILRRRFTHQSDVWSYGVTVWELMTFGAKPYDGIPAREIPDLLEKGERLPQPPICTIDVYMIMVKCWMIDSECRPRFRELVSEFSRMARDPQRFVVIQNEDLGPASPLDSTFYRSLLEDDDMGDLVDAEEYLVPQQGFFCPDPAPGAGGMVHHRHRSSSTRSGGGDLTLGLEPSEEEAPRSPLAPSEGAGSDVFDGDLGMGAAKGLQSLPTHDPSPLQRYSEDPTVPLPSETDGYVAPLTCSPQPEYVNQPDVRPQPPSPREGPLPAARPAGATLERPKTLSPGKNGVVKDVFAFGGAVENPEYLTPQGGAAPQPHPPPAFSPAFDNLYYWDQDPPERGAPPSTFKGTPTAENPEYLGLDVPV
T3 sequence (P00533 with tags, fused parts or gaps INS763FQEA): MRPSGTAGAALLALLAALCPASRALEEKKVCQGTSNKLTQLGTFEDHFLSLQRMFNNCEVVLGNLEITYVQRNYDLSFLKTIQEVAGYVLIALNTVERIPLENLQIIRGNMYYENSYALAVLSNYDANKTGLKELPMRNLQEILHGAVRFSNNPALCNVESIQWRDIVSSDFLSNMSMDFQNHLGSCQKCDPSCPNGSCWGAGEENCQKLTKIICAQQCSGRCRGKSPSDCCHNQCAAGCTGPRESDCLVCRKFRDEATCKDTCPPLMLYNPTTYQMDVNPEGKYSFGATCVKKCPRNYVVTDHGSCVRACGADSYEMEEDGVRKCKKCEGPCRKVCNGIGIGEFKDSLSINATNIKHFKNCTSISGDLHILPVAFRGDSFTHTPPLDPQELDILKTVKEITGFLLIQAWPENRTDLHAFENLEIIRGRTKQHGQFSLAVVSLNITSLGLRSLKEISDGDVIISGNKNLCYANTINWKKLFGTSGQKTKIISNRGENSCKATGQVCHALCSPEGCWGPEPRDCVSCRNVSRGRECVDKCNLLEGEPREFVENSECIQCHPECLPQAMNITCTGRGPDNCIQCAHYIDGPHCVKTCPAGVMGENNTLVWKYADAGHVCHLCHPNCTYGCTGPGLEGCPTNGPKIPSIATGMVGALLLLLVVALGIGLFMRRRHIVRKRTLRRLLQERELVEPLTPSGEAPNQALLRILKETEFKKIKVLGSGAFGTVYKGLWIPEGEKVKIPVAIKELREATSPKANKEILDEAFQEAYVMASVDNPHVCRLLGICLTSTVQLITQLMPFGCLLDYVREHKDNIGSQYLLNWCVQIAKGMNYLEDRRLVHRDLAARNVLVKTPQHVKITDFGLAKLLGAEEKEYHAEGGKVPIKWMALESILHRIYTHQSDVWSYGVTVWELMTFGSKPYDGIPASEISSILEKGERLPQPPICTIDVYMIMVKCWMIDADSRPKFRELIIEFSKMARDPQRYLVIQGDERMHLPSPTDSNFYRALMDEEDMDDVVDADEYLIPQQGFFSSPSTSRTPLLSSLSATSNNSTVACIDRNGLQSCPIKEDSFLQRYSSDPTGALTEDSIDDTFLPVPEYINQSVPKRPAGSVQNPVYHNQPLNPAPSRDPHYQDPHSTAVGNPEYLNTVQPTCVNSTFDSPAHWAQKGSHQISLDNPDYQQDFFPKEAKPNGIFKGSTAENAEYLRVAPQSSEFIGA
T6 sequence (P00533 whole entry T790M/L858R): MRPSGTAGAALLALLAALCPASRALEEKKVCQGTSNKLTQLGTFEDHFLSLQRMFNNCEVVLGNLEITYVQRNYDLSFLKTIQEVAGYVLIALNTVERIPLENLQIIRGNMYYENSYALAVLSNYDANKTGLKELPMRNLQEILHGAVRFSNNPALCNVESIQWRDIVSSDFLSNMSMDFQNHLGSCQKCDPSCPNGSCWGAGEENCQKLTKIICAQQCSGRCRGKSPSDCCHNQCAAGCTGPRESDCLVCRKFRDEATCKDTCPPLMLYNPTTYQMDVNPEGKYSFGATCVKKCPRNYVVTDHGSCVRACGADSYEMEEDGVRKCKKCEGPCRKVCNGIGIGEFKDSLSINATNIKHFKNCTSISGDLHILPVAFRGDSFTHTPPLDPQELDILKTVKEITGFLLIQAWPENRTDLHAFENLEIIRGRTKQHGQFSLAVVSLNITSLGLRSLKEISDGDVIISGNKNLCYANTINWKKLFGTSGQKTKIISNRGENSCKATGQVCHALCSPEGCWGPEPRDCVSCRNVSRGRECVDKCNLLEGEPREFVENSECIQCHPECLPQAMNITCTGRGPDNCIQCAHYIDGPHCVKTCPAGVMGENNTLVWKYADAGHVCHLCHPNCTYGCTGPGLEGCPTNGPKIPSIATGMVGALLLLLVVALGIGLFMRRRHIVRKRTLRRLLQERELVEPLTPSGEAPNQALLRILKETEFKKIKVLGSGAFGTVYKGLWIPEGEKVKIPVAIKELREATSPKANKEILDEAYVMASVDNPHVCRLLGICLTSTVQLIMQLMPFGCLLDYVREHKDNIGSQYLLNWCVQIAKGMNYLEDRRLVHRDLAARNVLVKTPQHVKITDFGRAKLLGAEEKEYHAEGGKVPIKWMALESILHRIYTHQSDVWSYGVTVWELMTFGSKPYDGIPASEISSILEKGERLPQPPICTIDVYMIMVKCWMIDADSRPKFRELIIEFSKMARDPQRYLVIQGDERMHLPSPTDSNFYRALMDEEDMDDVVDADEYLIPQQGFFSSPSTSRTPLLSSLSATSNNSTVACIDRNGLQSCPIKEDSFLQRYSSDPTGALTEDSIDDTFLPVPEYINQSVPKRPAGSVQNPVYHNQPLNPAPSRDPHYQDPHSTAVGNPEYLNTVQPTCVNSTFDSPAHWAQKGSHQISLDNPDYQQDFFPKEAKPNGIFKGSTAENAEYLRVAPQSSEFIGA

On to `C=CC(=O)N[C@H]1C[C@H](Oc2cc3c(Nc4ccc(Cl)c(Cl)c4F)ncnc3cc2OC)C1` [Compound 79, N-((1r,3r)-3-((4-((3,4-dichloro-2-fluorophenyl)amino)-7-methoxyquinazolin-6-yl)oxy)cyclobutyl)acrylamide], for which the half-maximal effective concentration (EC50) – broadly, the concentration at which the effect is half-maximal – is > 1000 nM in test [1]; 200 to 1000 nM in test [2]; ≤ 200 nM in test [3]; ≤ 200 nM in test [4]; 200 to 1000 nM in test [5]; > 1000 nM in test [6].

For the molecule `C=CC(=O)NC1CC(Oc2cc3c(Nc4ccc5ccccc5c4)ncnc3cc2OC)C1` (stereo not drawn) [Compound 80, N-(3-((7-methoxy-4-(naphthalen-2-ylamino)quinazolin-6-yl)oxy)cyclobutyl)acrylamide], the concentration for a half-maximal effect (EC50) is > 1000 nM in test [1]; > 1000 nM in test [2]; ≤ 200 nM in test [3]; > 1000 nM in test [4]; > 1000 nM in test [5]; > 1000 nM in test [6].

For the molecule `C=CC(=O)NC1CC(Oc2cc3c(Nc4cccc5ccccc45)ncnc3cc2OC)C1` (stereo not drawn) [Compound 81, N-(3-((7-methoxy-4-(naphthalen-1-ylamino)quinazolin-6-yl)oxy)cyclobutyl)acrylamide], the EC50 in test [1] was ≤ 200 nM; in test [2] it was 200 to 1000 nM; in test [3] it was ≤ 200 nM; in test [4], ≤ 200 nM; in test [5], 200 to 1000 nM; in test [6], 200 to 1000 nM.

Turning to `C=CC(=O)N[C@H]1C[C@@H](Oc2cc3c(Nc4ccc(Cl)c(Cl)c4)ncnc3cc2OC)C1` [Compound 82, N-((1s,3s)-3-((4-((3,4-dichlorophenyl)amino)-7-methoxyquinazolin-6-yl)oxy)cyclobutyl)acrylamide], the 50% effective concentration (EC50) in test [1] is 200 to 1000 nM; in test [2], 200 to 1000 nM; in test [3] it was ≤ 200 nM; in test [4], ≤ 200 nM; in test [5] it was 200 to 1000 nM; in test [6], 200 to 1000 nM.

For `C=CC(=O)N[C@H]1C[C@@H](Oc2cc3c(Nc4cccc5ccccc45)ncnc3cc2OC)C1` [Compound 83, N-((1s,3s)-3-((7-methoxy-4-(naphthalen-1-ylamino)quinazolin-6-yl)oxy)cyclobutyl)acrylamide], the half-maximal effective concentration (EC50) is 200 to 1000 nM in test [1]; ≤ 200 nM in test [2]; ≤ 200 nM in test [3]; ≤ 200 nM in test [4]; 200 to 1000 nM in test [5]; 200 to 1000 nM in test [6].

On to `C=CC(=O)NC1CC(Oc2cc3c(NCc4ccc(F)cc4)ncnc3cc2OC)C1` (stereo not drawn) [Compound 84, N-(3-((4-((4-fluorobenzyl)amino)-7-methoxyquinazolin-6-yl)oxy)cyclobutyl)acrylamide], for which the concentration giving a half-maximal response (EC50) in test [1] was > 1000 nM; in test [2] it was > 1000 nM; in test [3], ≤ 200 nM; in test [4] it was 200 to 1000 nM; in test [5], > 1000 nM; in test [6] it was > 1000 nM.

In the case of `C=CC(=O)NC1CC(Oc2cc3c(Nc4ccc(F)c(Cl)c4)ncnc3cc2OC)C1` (stereo not drawn) [Compound 85, N-(3-((4-((3-chloro-4-fluorophenyl)amino)-7-methoxyquinazolin-6-yl)oxy)cyclobutyl)acrylamide], the EC50 in test [1] is > 1000 nM; in test [2], > 1000 nM; in test [3], ≤ 200 nM; in test [4], 200 to 1000 nM; in test [5], > 1000 nM; in test [6], > 1000 nM.

Take `C=CC(=O)N[C@H]1C[C@H](Oc2cc3c(Nc4ccc(C#N)c(Cl)c4)ncnc3cc2OC)C1` [Compound 86, N-(3-((4-((3-chloro-4-cyanophenyl)amino)-7-methoxyquinazolin-6-yl)oxy)cyclobutyl)acrylamide]: the EC50 is > 1000 nM in test [1]; > 1000 nM in test [2]; 200 to 1000 nM in test [3]; > 1000 nM in test [4]; > 1000 nM in test [5]; > 1000 nM in test [6].

`C=CC(=O)NC1CC(Oc2cc3c(Nc4ccc(F)c(C#N)c4)ncnc3cc2OC)C1` (stereo not drawn) [Compound 87, N-(3-((4-((3-cyano-4-fluorophenyl)amino)-7-methoxyquinazolin-6-yl)oxy)cyclobutyl)acrylamide]: the EC50 in test [1] was > 1000 nM; in test [2], > 1000 nM; in test [3] it was 200 to 1000 nM; in test [4], > 1000 nM; in test [5], > 1000 nM; in test [6], > 1000 nM.

As for `C=CC(=O)NC1CC(Oc2cc3c(Nc4cccc5c4CCC5)ncnc3cc2OC)C1` (stereo not drawn) [Compound 88, N-(3-((4-((2,3-dihydro-1H-inden-4-yl)amino)-7-methoxyquinazolin-6-yl)oxy)cyclobutyl)acrylamide], the concentration giving a half-maximal response (EC50) in test [1] is > 1000 nM; in test [2], > 1000 nM; in test [3], 200 to 1000 nM; in test [4], > 1000 nM; in test [5], > 1000 nM; in test [6], > 1000 nM.

Regarding `C=CC(=O)NC1CC(Oc2cc3c(Nc4cccc5c4CCCC5)ncnc3cc2OC)C1` (stereo not drawn) [Compound 89, N-(3-((7-methoxy-4-((5,6,7,8-tetrahydronaphthalen-1-yl)amino)quinazolin-6-yl)oxy)cyclobutyl)acrylamide], the EC50 in test [1] is > 1000 nM; in test [2] it was > 1000 nM; in test [3] it was 200 to 1000 nM; in test [4], > 1000 nM; in test [5], > 1000 nM; in test [6], > 1000 nM.

`C=CC(=O)N[C@H]1CC[C@@H](Oc2cc3c(Nc4ccc(Cl)c(Cl)c4F)ncnc3cc2OC)CC1` [Compound 90, N-((1s,4s)-4-((4-((3,4-dichloro-2-fluorophenyl)amino)-7-methoxyquinazolin-6-yl)oxy)cyclohexyl)acrylamide]: the concentration giving a half-maximal response (EC50) in test [1] was > 1000 nM; in test [2], 200 to 1000 nM; in test [3] it was ≤ 200 nM; in test [4], ≤ 200 nM; in test [5], > 1000 nM; in test [6], > 1000 nM.

Consider `C=CC(=O)N[C@H]1CC[C@H](Oc2cc3c(Nc4ccc(Cl)c(Cl)c4F)ncnc3cc2OC)CC1` [Compound 91, N-((1r,4r)-4-((4-((3,4-dichloro-2-fluorophenyl)amino)-7-methoxyquinazolin-6-yl)oxy)cyclohexyl)acrylamide], for which the concentration for a half-maximal effect (EC50) was 200 to 1000 nM in test [1]; 200 to 1000 nM in test [2]; ≤ 200 nM in test [3]; 200 to 1000 nM in test [4]; 200 to 1000 nM in test [5]; > 1000 nM in test [6].

Consider `C=CC(=O)NC1CC(Nc2cc3c(Nc4ccc(Cl)c(Cl)c4F)ncnc3cc2OC)C1` (stereo not drawn) [Compound 92, N-(3-((4-((3,4-dichloro-2-fluorophenyl)amino)-7-methoxyquinazolin-6-yl)amino)cyclobutyl)acrylamide], for which the half-maximal effective concentration (EC50) in test [1] was 200 to 1000 nM; in test [2] it was ≤ 200 nM; in test [3], ≤ 200 nM; in test [4], ≤ 200 nM; in test [5], ≤ 200 nM; in test [6] it was 200 to 1000 nM.

`C=CC(=O)N1CCC(Oc2cc3c(C(=O)NCc4ccc(F)cc4)ncnc3cc2OC)CC1` [Compound 94, 6-((1-acryloylpiperidin-4-yl)oxy)-N-(4-fluorobenzyl)-7-methoxyquinazoline-4-carboxamide]: the 50% effective concentration (EC50) in test [1] was > 1000 nM; in test [2], > 1000 nM; in test [3], ≤ 200 nM; in test [4], > 1000 nM; in test [5] it was > 1000 nM; in test [6], > 1000 nM.

On to `C=CC(=O)N1CCC(Oc2cc3c(C(=O)N[C@H](C)c4ccc(F)cc4)ncnc3cc2OC)CC1` [Compound 95, (R)-6-((1-acryloylpiperidin-4-yl)oxy)-N-(1-(4-fluorophenyl)ethyl)-7-methoxyquinazoline-4-carboxamide], for which the EC50 in test [1], in test [2], in test [3], in test [4], in test [5] and in test [6] was > 1000 nM throughout.

For the molecule `C=CC(=O)NC1CC(Oc2cc3c(C(=O)NCc4ccc(F)cc4)ncnc3cc2OC)C1` (stereo not drawn) [Compound 96, 6-(3-acrylamidocyclobutoxy)-N-(4-fluorobenzyl)-7-methoxyquinazoline-4-carboxamide], the EC50 in test [1], in test [2], in test [3], in test [4], in test [5] and in test [6] was > 1000 nM in each case.
